Source: PubChem BioAssay (NCI)
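1) Cells in 96-well plates. 2) Compound, 48 h, 5 concentrations. 3) Linear interpolation between surrounding doses. 4) Unreached endpoint = highest concentration. GI50 = concentration required for 50% inhibition of growth. Definition used: TGI = concentration required for complete inhibition of growth.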

Assays:
Assay in all cases: growth of human tumour cells (NCI), 48 h; in the data active = GI50 below about 0.43 µM; inactive = the rest
HS 578T breast = system: HS 578T breast
HCC-2998 colon = system: HCC-2998 colon
U251 CNS = system: U251 CNS
OVCAR-3 ovarian = system: OVCAR-3 ovarian
OVCAR-4 ovarian = system: OVCAR-4 ovarian
CAKI-1 renal = system: CAKI-1 renal
UACC-257 melanoma = system: UACC-257 melanoma
SK-MEL-5 melanoma = system: SK-MEL-5 melanoma
KM12 colon = system: KM12 colon
HOP-92 NSCLC = system: HOP-92 NSCLC
SN12C renal = system: SN12C renal
SF-268 CNS = system: SF-268 CNS
UACC-62 melanoma = system: UACC-62 melanoma
OVCAR-8 ovarian = system: OVCAR-8 ovarian
DU-145 prostate = system: DU-145 prostate
MDA-MB-231 breast = system: MDA-MB-231 breast
NCI-H522 lung = system: NCI-H522 lung
HT29 colon = system: HT29 colon
MDA-MB-435 = system: MDA-MB-435
UO-31 renal = system: UO-31 renal
SW-620 colon = system: SW-620 colon
PC-3 prostate = system: PC-3 prostate
NCI-H460 lung = system: NCI-H460 lung
ACHN renal = system: ACHN renal
LOX IMVI melanoma = system: LOX IMVI melanoma
NCI-H226 lung = system: NCI-H226 lung
SNB-75 CNS = system: SNB-75 CNS
RXF 393 renal = system: RXF 393 renal
OVCAR-5 ovarian = system: OVCAR-5 ovarian

COc1cccc(-n2ncc3c(N/N=C/c4ccc(F)cc4)ncnc32)c1
22.1 µM: TGI (HS 578T breast)
19.9 µM: TGI (HOP-92 NSCLC)
> 25 µM: TGI (HCC-2998 colon) | TGI (CAKI-1 renal) | TGI (UACC-257 melanoma) | TGI (SK-MEL-5 melanoma) | TGI (KM12 colon) | TGI (SN12C renal) | TGI (SF-268 CNS) | TGI (UACC-62 melanoma) | TGI (OVCAR-8 ovarian) | TGI (DU-145 prostate) | TGI (MDA-MB-231 breast) | TGI (NCI-H522 lung) | TGI (HT29 colon) | TGI (MDA-MB-435) | TGI (UO-31 renal) | TGI (SW-620 colon) | TGI (PC-3 prostate) | TGI (ACHN renal) | TGI (LOX IMVI melanoma) | TGI (NCI-H226 lung) | TGI (OVCAR-5 ovarian)
> 21.9 µM: TGI (U251 CNS)
24.7 µM: TGI (NCI-H460 lung)
14.5 µM: TGI (OVCAR-4 ovarian)
24.9 µM: TGI (RXF 393 renal)
10.3 µM: TGI (OVCAR-3 ovarian)
inactive: GI50 (HS 578T breast) 7.51 µM | GI50 (HCC-2998 colon) > 25 µM | GI50 (U251 CNS) 8.81 µM | GI50 (OVCAR-3 ovarian) 5.27 µM | GI50 (OVCAR-4 ovarian) 6.55 µM | GI50 (CAKI-1 renal) > 18.7 µM | GI50 (UACC-257 melanoma) > 25 µM | GI50 (SK-MEL-5 melanoma) 14.7 µM | GI50 (KM12 colon) 18.4 µM | GI50 (HOP-92 NSCLC) 6.48 µM | GI50 (SN12C renal) 23 µM | GI50 (SF-268 CNS) > 25 µM | GI50 (UACC-62 melanoma) > 25 µM | GI50 (OVCAR-8 ovarian) 14.8 µM | GI50 (DU-145 prostate) 17.4 µM | GI50 (MDA-MB-231 breast) 8.59 µM | GI50 (NCI-H522 lung) > 19.1 µM | GI50 (HT29 colon) > 25 µM | GI50 (MDA-MB-435) 14.5 µM | GI50 (UO-31 renal) > 14.6 µM | GI50 (SW-620 colon) 24.3 µM | GI50 (PC-3 prostate) > 25 µM | GI50 (NCI-H460 lung) 10.3 µM | GI50 (ACHN renal) > 25 µM | GI50 (LOX IMVI melanoma) > 25 µM | GI50 (NCI-H226 lung) > 25 µM | GI50 (SNB-75 CNS) 5.98 µM | GI50 (RXF 393 renal) 10.6 µM | GI50 (OVCAR-5 ovarian) > 25 µM
> 18.6 µM: TGI (SNB-75 CNS)
